Results from paper PMC12405493, “Selective ubiquitination of drug-like small molecules by the ubiquitin ligase HUWE1” (Nature Communications, 2025).

System: HEK293T cells
Experiment: Quantitative total proteomics
Assay type: cell-based, human
Details: 15 μM, 24 h vs DMSO
Method: For total proteomics and Ub remnant profiling (diGly proteomics), HEK293T cells were treated with 15 μM BI8626 (in DMSO) or an equivalent volume of DMSO for 24 h, washed with ice-cold 1 x DPBS, and lysed in 9 M urea, 50 mM Tris (pH 8.0) and 150 mM NaCl, supplemented with protease inhibitor (Roche) and 50 µM PR-619, and processed essentially as described. Briefly, the cells were lysed by sonication, non-solubilized material removed by centrifugation, and the protein concentration was determined with a Pierce BCA Protein Assay Kit. 5 mg was used for further MS processing and four biological replicates per condition.
After reduction with 5 mM DTT and alkylation with 10 mM chloroacetamide, followed by quenching with 5 mM DTT, lysates were digested with 5 ng/μl LysC protease (Wako) at RT for 1 h. Subsequent digestion of peptides with trypsin (Promega) at a 1: 200 enzyme: peptide ratio was performed. Desalted and lyophilized peptides were resuspended in 1.5 ml IAP buffer (50 mM MOPS (pH 7.2), 10 mM Na2HPO4, 50 mM NaCl) and centrifuged to remove insoluble material. […]
Data collection was controlled by Tune v.4.0.4084.22 (Thermo Scientific) and Xcalibur v.2.4 (Thermo Fisher Scientific). Raw data files from quadruplicate samples were analyzed using MaxQuant v.1.6.0.1 (Max Planck Institute of Biochemistry)[56],[57]. […]

`NCc1cccc(CNc2ncnc3c(N4CCN(Cc5ccccc5)CC4)ncnc23)c1` [BI8626] was tested, and the Total proteome changes was “widespread compound-induced changes”.
